Bridge positions count the residues as written; N and C are the ends. Ends that are not written are not given here.
Key:
brain [1] = experiment: Homing of individually amplified phage to brain compared with kidney (TU recovered); type: in vivo, mice; conditions: phage displaying the peptide, same input titer, TU recovered from each organ
Protocol: To determine the specificity of brain homing of the individual motifs identified, phage displaying the predominant motifs were amplified individually, diluted to the same input titer and administered to mice. Following administration, brain and kidney were removed and the number of TU of phage in each organ was determined. […] Specifically, the ratio of selective homing (brain:kidney) was about 8 for CNSRLHLRC (SEQ ID NO: 1) and for CLSSRLDAC (SEQ ID NO: 3), 4 for CENWWGDVC (SEQ ID NO: 2) and 9 for […] (SEQ ID NO: 16).

kidney = experiment: Homing of individual phage to kidney compared with brain; type: in vivo, mice; conditions: phage expressing the peptide
Protocol: The same methodology used to isolate phage expressing brain homing peptides was used to isolate phage expressing peptides that home to kidney. In these experiments, brain was used as the control organ. A mixture of the CX5C (SEQ ID NO: 36) and the CX6C (SEQ ID NO: 37) libraries was administered as described above. Homing of phage to the kidney was obtained and an approximately 3× to 7× enrichment of phage homing to kidney was observed following a second round of in vivo panning.
The amino acid sequences were determined for the inserts in 48 cloned phage that homed to kidney. The peptides expressed by these phage were represented by two predominant sequences, CLPVASC (SEQ ID NO: 21; 46% of the clones sequenced) and CGAREMC (SEQ ID NO: 22; 17% of the clones; see Table 2). In addition, the peptide CKGRSSAC (SEQ ID NO: 23) appeared three times and three other peptides were present twice each.

brain [2] = experiment: Peptide competition: synthetic cyclic peptide co-injected with brain homing phage; type: in vivo, mice; conditions: 100 μg synthetic cyclic peptide co-injected with 1×10^8 TU phage
Protocol: In order to confirm the specificity of a peptide for directing homing to a selected organ, peptide competition experiments were performed. The cyclic peptide, CLSSRLDAC (SEQ ID NO: 3), which is one of the brain homing peptides (see Table 1) was synthesized (Immunodynamics; La Jolla Calif.) and purified by HPLC. The effect on the homing of phage expressing CLSSRLDAC (SEQ ID NO: 3), CENWWGDVC (SEQ ID NO: 2) or […] (SEQ ID NO: 16) to the brain was examined in order to determine whether co-administration of the synthetic peptide affected homing of the phage.
Phage expressing CLSSRLDAC (SEQ ID NO: 3), CENWWGDVC (SEQ ID NO: 2) or […] (SEQ ID NO: 16) were titrated to the same concentration and 1×10^8 TU was injected into mice alone, or with 100 μg purified synthetic cyclic CLSSRLDAC (SEQ ID NO: 3) peptide. The synthetic CLSSRLDAC (SEQ ID NO: 3) peptide inhibited the homing of phage expressing CLSSRLDAC (SEQ ID NO: 3) by about 60%.

brain [3] = experiment: Homing of 125I-peptide/RBC complex to brain and kidney, alone or with unlabeled peptide; type: in vivo, mouse; conditions: for effect of coadministered unlabeled peptide on brain homing of the CLSSRLDAC/RBC complex / effect of coadministered unlabeled peptide on localization of the CLSSRLDAC/RBC complex in the kidney: 10 mM unlabeled peptide coadministered
Protocol: The synthetic cyclic CLSSRLDAC (SEQ ID NO: 3) peptide (1 mg) was labeled with iodine-125 using the Bolton and Hunter reagent (Amersham; Arlington Heights Ill.). Labeled peptide was purified by reverse phase HPLC on Sep-Pak™ cartridges (Waters, Millipore Corp.; Milford Pa.) and the ^125I-peptide (200 μg) was coupled to 1 ml glutaraldehyde-stabilized sheep RBC (Sigma Chemical Co.; St. Louis Mo.) according to the manufacturer's instructions.
After 2 min, each mouse was perfused through the heart with 50 ml DMEM and the brain and kidney were removed and assayed for radioactivity.
Approximately twice as much of the CLSSRLDAC/RBC complex (SEQ ID NO: 3) homed to brain than to kidney. […] Coadministration of unlabeled CVRLNSLAC (SEQ ID NO: 43) had no effect on selective homing of the complex to brain and no effect on the non-specific localization of the complex in the kidney.

| Substance | ratio of selective homing (brain:kidney) (brain [1]) | ratio of selective kidney:brain homing (kidney) | also measured |
| --- | --- | --- | --- |
| CNSRLHLRC (displayed on phage) | about 8 | – | – |
| CGAREMC (displayed on phage) | – | 3 | – |
| CENWWGDVC (displayed on phage) | ~4 | – | – |
| CLSSRLDAC (disulfide 1-9 (inferred)) [also synthesized as cyclic peptide] | about 8 | – | effect on homing to brain of CENWWGDVC phage (brain [2]): did not affect; inhibition of homing to brain of phage expressing CLSSRLDAC (brain [2]): about 60%; effect of coadministered unlabeled peptide on brain homing of the CLSSRLDAC/RBC complex (brain [3]): essentially completely inhibited; effect of coadministered unlabeled peptide on localization of the CLSSRLDAC/RBC complex in the kidney (brain [3]): had no effect |
| WRCVLREGPAGGCAWFNRHRL (displayed on phage) | ~9 | – | – |
| CLPVASC (displayed on phage) | – | 7 | – |
| CVRLNSLAC | – | – | effect of coadministered unlabeled peptide on brain homing of the CLSSRLDAC/RBC complex (brain [3]): had no effect; effect of coadministered unlabeled peptide on localization of the CLSSRLDAC/RBC complex in the kidney (brain [3]): no effect; brain homing activity (brain [3]; stated for the control peptide): no brain homing activity |
| CKGRSSAC (displayed on phage) | – | 2 | – |

— US7018615B2, “Method of identifying molecules that home to a selected organ in vivo” (The Burnham Institute, priority 1995, dated 2006)
